# According to PubChem BioAssay AID602353 (The Scripps Research Institute Molecular Screening Center, 2012):
# The source made the active and inactive calls. No rule for the calls is given here.
# What was measured:
# Experiment in all cases: mouse tissue hydrolase off-target engagement – ABPP MudPIT, LC-MS, in vivo study for DAGLb inhibitor project, late-stage follow-up (AID 602353)
# [1] = target: Acyl-protein thioesterase 1 (Mus musculus) (UniProt P97823); settings: FP-probe spectral counts, Lypla1, stronger effect = lower value
# Ctsa = settings: FP-probe spectral counts, stronger effect = lower value
# Lipe = settings: FP-probe spectral counts, stronger effect = lower value
# Lpl = settings: FP-probe spectral counts, stronger effect = lower value
# Elane = settings: FP-probe spectral counts, stronger effect = lower value
# Fam108b = settings: FP-probe spectral counts, stronger effect = lower value
# [2] = target: Palmitoyl-protein thioesterase ABHD10, mitochondrial (Mus musculus) (UniProt Q6PE15); settings: FP-probe spectral counts, stronger effect = lower value
# Daglb = settings: FP-probe spectral counts, vehicle vs compound significance, stronger effect = lower value
# Abhd6 = settings: FP-probe spectral counts, vehicle vs compound significance, stronger effect = lower value
# Dpp9 = settings: FP-probe spectral counts, stronger effect = lower value
# Pnpla6 = settings: FP-probe spectral counts, stronger effect = lower value
# Acot2 = settings: FP-probe spectral counts, stronger effect = lower value
# Pla2g7 = settings: FP-probe spectral counts, vehicle vs compound significance, stronger effect = lower value
# Pnpla7 = settings: FP-probe spectral counts, stronger effect = lower value
# [3] = target: Platelet-activating factor acetylhydrolase 2, cytoplasmic (Mus musculus) (UniProt Q8VDG7); settings: FP-probe spectral counts, Pafah2, stronger effect = lower value
# Iah1 = settings: FP-probe spectral counts, stronger effect = lower value
# Apeh = settings: FP-probe spectral counts, stronger effect = lower value
# Magl = settings: FP-probe spectral counts, stronger effect = lower value
# Pafah1b2 = settings: FP-probe spectral counts, stronger effect = lower value
# Lypla1 = settings: FP-probe spectral counts, vehicle vs compound significance, stronger effect = lower value
# Abhd11 = settings: FP-probe spectral counts, stronger effect = lower value
# [4] = target: Platelet-activating factor acetylhydrolase (Mus musculus) (UniProt Q60963); settings: FP-probe spectral counts, Pla2g7, stronger effect = lower value
# Pafah2 = settings: FP-probe spectral counts, vehicle vs compound significance, stronger effect = lower value
# [5] = target: Diacylglycerol lipase-beta (Mus musculus) (UniProt Q91WC9); settings: FP-probe spectral counts, Daglb, stronger effect = lower value
# Pnpla8 = settings: FP-probe spectral counts, stronger effect = lower value
# Aoah = settings: FP-probe spectral counts, stronger effect = lower value
# Dpp4 = settings: FP-probe spectral counts, stronger effect = lower value
# Ctsg = settings: FP-probe spectral counts, stronger effect = lower value
# Pla2g15 = settings: FP-probe spectral counts, stronger effect = lower value
# Abhd12 = settings: FP-probe spectral counts, stronger effect = lower value
# Prcp = settings: FP-probe spectral counts, stronger effect = lower value
# Parl = settings: FP-probe spectral counts, stronger effect = lower value
# Lypla2 = settings: FP-probe spectral counts, stronger effect = lower value
# Dpp7 = settings: FP-probe spectral counts, stronger effect = lower value
# Dpp8 = settings: FP-probe spectral counts, stronger effect = lower value
# Kiaa1363 = settings: FP-probe spectral counts, stronger effect = lower value
# Pafah1b3 = settings: FP-probe spectral counts, stronger effect = lower value
# [6] = target: Monoacylglycerol lipase ABHD6 (Mus musculus) (UniProt Q8R2Y0); settings: FP-probe spectral counts, stronger effect = lower value
# Abhd10 = settings: FP-probe spectral counts, vehicle vs compound significance, stronger effect = lower value
# Fasn = settings: FP-probe spectral counts, stronger effect = lower value
# Acot1 = settings: FP-probe spectral counts, stronger effect = lower value
# [7] = vehicle vs compound significance
# Platelet-activating factor acetylhydrolase (Mus musculus), sequence (Q60963 whole entry, looked up): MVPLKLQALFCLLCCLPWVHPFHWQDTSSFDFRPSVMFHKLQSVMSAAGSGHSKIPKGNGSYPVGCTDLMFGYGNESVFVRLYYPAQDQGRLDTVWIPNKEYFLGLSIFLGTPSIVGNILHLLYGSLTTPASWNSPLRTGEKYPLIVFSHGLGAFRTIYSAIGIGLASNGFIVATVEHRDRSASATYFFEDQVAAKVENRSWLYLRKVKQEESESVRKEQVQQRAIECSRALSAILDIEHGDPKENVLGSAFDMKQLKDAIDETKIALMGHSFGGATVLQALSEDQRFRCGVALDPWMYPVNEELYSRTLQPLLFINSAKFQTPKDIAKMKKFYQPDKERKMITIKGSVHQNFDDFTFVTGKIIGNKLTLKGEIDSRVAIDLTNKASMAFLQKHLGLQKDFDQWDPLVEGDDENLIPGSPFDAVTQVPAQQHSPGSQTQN
# Monoacylglycerol lipase ABHD6 (Mus musculus), sequence (Q8R2Y0 whole entry, looked up): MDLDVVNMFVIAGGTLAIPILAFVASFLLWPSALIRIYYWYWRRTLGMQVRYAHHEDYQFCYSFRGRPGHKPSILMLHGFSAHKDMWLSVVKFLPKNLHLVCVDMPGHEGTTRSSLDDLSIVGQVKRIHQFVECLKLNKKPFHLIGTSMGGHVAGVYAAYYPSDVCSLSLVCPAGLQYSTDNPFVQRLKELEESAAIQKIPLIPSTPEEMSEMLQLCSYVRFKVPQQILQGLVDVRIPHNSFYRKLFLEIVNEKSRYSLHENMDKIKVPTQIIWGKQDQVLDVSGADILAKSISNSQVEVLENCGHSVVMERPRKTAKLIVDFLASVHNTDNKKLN
# Platelet-activating factor acetylhydrolase 2, cytoplasmic (Mus musculus), sequence (Q8VDG7 whole entry, looked up): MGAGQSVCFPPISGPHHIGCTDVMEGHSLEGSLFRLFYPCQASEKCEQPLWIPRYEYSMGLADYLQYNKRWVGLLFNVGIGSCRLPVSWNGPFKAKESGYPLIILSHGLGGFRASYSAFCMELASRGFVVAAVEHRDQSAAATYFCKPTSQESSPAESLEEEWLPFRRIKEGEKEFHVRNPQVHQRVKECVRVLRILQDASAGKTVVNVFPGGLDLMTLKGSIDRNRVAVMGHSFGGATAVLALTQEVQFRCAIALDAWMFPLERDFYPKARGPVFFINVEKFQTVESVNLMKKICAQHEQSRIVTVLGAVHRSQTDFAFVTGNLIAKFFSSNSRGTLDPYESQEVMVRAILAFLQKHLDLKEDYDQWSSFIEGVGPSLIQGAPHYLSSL
# Palmitoyl-protein thioesterase ABHD10, mitochondrial (Mus musculus), sequence (Q6PE15 whole entry, looked up): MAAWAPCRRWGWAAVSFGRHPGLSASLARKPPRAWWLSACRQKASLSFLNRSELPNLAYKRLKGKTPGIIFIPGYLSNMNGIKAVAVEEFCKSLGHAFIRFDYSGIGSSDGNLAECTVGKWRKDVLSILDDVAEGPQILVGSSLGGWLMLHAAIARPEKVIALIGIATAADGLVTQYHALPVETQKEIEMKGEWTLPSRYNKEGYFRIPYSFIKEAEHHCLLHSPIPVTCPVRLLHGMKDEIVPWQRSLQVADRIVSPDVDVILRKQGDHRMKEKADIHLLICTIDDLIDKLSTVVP
# Acyl-protein thioesterase 1 (Mus musculus), sequence (P97823 whole entry, looked up): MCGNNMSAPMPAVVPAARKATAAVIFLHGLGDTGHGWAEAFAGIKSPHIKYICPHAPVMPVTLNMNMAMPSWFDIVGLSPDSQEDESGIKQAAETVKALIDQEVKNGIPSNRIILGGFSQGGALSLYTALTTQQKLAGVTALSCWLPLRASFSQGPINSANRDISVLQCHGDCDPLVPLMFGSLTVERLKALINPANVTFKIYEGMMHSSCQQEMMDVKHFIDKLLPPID
# Diacylglycerol lipase-beta (Mus musculus), sequence (Q91WC9 whole entry, looked up): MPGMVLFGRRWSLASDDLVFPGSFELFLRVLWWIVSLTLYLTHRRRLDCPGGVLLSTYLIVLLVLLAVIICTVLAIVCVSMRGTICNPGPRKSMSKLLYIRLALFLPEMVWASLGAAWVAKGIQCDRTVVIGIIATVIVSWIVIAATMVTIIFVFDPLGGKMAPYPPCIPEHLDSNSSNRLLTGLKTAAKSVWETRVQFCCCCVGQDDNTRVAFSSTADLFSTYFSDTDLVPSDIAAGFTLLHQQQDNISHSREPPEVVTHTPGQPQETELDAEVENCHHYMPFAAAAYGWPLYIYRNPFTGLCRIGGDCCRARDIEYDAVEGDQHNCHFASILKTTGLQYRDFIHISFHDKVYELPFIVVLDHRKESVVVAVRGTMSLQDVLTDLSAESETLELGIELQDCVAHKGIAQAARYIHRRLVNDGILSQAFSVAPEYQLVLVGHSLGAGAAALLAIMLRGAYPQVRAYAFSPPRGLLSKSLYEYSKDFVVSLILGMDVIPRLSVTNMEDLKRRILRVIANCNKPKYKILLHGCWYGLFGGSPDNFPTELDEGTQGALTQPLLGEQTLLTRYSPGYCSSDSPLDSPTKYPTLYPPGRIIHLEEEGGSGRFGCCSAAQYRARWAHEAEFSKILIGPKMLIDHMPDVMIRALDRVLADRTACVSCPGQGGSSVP
smiles,measurement,setting,value
COc1ccccc1-c1ccc(-c2cn(C(=O)N3CCCCC3Cc3ccccc3)nn2)cc1 (stereo not given),"spectral counts, test compound",[1],84 (inactive)
same,"spectral counts, test compound",Ctsa,57.7 (inactive)
same,P value,Ctsa; [7],0.562
same,"spectral counts, test compound",Lipe,76 (inactive)
same,P value,Lipe; [7],0.299
same,"spectral counts, test compound",Lpl,20.3 (inactive)
same,P value,Lpl; [7],0.81
same,"spectral counts, test compound",Elane,120 (inactive)
same,P value,Elane; [7],0.837
same,"spectral counts, test compound",Fam108b,24 (inactive)
same,P value,Fam108b; [7],0.757
same,"spectral counts, test compound",[2],22.3 (inactive)
same,P value,Daglb,0.004
same,P value,Abhd6,0.033
same,"spectral counts, test compound",Dpp9,134 (inactive)
same,P value,Dpp9; [7],0.213
same,"spectral counts, test compound",Pnpla6,11.3 (inactive)
same,P value,Pnpla6; [7],0.696
same,"spectral counts, test compound",Acot2,85 (inactive)
same,P value,Acot2; [7],0.094
same,P value,Pla2g7,0.996
same,"spectral counts, test compound",Pnpla7,34.3 (inactive)
same,P value,Pnpla7; [7],0.536
same,"spectral counts, test compound",[3],33.7 (inactive)
same,"spectral counts, test compound",Iah1,22.3 (inactive)
same,P value,Iah1; [7],0.127
same,"spectral counts, test compound",Apeh,252 (inactive)
same,P value,Apeh; [7],0.731
same,"spectral counts, test compound",Magl,5.67 (inactive)
same,P value,Magl; [7],0.368
same,"spectral counts, test compound",Pafah1b2,66 (inactive)
same,P value,Pafah1b2; [7],0.317
same,P value,Lypla1,0.819
same,"spectral counts, test compound",Abhd11,23 (inactive)
same,P value,Abhd11; [7],0.167
same,"spectral counts, test compound",[4],97.3 (inactive)
same,P value,Pafah2,0.491
same,"spectral counts, test compound",[5],0
same,"spectral counts, test compound",Pnpla8,3.67 (inactive)
same,P value,Pnpla8; [7],0.35
same,"spectral counts, test compound",Aoah,35.7 (inactive)
same,P value,Aoah; [7],0.389
same,"spectral counts, test compound",Dpp4,146 (inactive)
same,P value,Dpp4; [7],0.754
same,"spectral counts, test compound",Ctsg,283 (inactive)
same,P value,Ctsg; [7],0.854
same,"spectral counts, test compound",Pla2g15,15 (inactive)
same,P value,Pla2g15; [7],0.135
same,"spectral counts, test compound",Abhd12,64.7 (inactive)
same,P value,Abhd12; [7],0.512
same,"spectral counts, test compound",Prcp,133 (inactive)
same,P value,Prcp; [7],0.736
same,"spectral counts, test compound",Parl,20 (inactive)
same,P value,Parl; [7],0.382
same,"spectral counts, test compound",Lypla2,118 (inactive)
same,P value,Lypla2; [7],0.278
same,"spectral counts, test compound",Dpp7,61.7 (inactive)
same,P value,Dpp7; [7],0.138
same,"spectral counts, test compound",Dpp8,31.3 (inactive)
same,P value,Dpp8; [7],0.949
same,"spectral counts, test compound",Kiaa1363,206 (inactive)
same,P value,Kiaa1363; [7],0.156
same,"spectral counts, test compound",Pafah1b3,35 (inactive)
same,P value,Pafah1b3; [7],0.532
same,"spectral counts, test compound",[6],0
same,P value,Abhd10,0.961
same,"spectral counts, test compound",Fasn,178 (inactive)
same,P value,Fasn; [7],0.517
same,"spectral counts, test compound",Acot1,48.3 (inactive)
same,P value,Acot1; [7],0.802
